What was measured:
Assay in all cases: relative viability (nuclei count vs DMSO), 5 days (fraction); higher = more cells survive
[1] = compound: COc1cc(-c2nn([C@H]3CC[C@H](N4CCN(C(C)=O)CC4)CC3)c3ncnc(N)c23)ccc1NC(=O)c1cc2ccccc2n1C + Cc1cc(Nc2cc(N3CCN(C)CC3)nc(Sc3ccc(NC(=O)C4CC4)cc3)n2)n[nH]1 [Tozasertib] (partner 0.1 µM)
Outline: (§1)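 For relative viability, nuclei counts in treated wells were divided by those in vehicle wells. Lung cancer cell lines had been pin-tool dosed in 1536-well plates the day after seeding and cultured for 5 days, then fixed and stained in one step (final 0.05% Triton X-100, 1% formaldehyde, 1 ug/ml Hoechst) and imaged at 4×. Doses were one drug alone or a fixed anchor-drug dose plus five library-drug doses (not always all listed) in √10 steps, and values are duplicate-plate medians.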

[2] = compound: CO[C@@H]1[C@H](N(C)C(=O)c2ccccc2)C[C@H]2O[C@]1(C)n1c3ccccc3c3c4c(c5c6ccccc6n2c5c31)C(=O)NC4 [Midostaurin] + Nc1ncn([C@H]2C[C@H](O)[C@@H](CO)O2)c(=O)n1 [Decitabine] (partner 2 µM)
Outline: as §1

[3] = compound: COc1cc(-c2nn([C@H]3CC[C@H](N4CCN(C(C)=O)CC4)CC3)c3ncnc(N)c23)ccc1NC(=O)c1cc2ccccc2n1C + O=C(CCCCCCC(=O)Nc1ccccc1)NO [Vorinostat] (partner 1 µM)
Outline: as §1

[4] = compound: CO[C@@H]1[C@H](N(C)C(=O)c2ccccc2)C[C@H]2O[C@]1(C)n1c3ccccc3c3c4c(c5c6ccccc6n2c5c31)C(=O)NC4 [Midostaurin] + C[C@@H](Oc1cc(-c2cnn(C3CCNCC3)c2)cnc1N)c1c(Cl)ccc(F)c1Cl [Crizotinib] (partner 1 µM)
Outline: as §1

[5] = compound: COc1cc(-c2nn([C@H]3CC[C@H](N4CCN(C(C)=O)CC4)CC3)c3ncnc(N)c23)ccc1NC(=O)c1cc2ccccc2n1C + CC(C)C[C@H](NC(=O)[C@H](Cc1ccccc1)NC(=O)c1cnccn1)B(O)O [Bortezomib] (partner 0.002 µM)
Outline: as §1

Row | Cell Line | relative viability ([1]; first compound 0.0128 µM) | relative viability ([1]; first compound 0.128 µM) | relative viability ([1]; first compound 1.28 µM) | relative viability ([2]; first compound 0.01 µM) | relative viability ([2]; first compound 0.03162 µM) | relative viability ([2]; first compound 0.1 µM) | relative viability ([2]; first compound 0.3162 µM) | relative viability ([3]; first compound 0.0128 µM) | relative viability ([3]; first compound 0.04048 µM) | relative viability ([3]; first compound 0.128 µM) | relative viability ([3]; first compound 1.28 µM) | relative viability ([4]; first compound 0.01 µM) | relative viability ([4]; first compound 0.03162 µM) | relative viability ([4]; first compound 0.1 µM) | relative viability ([4]; first compound 0.3162 µM) | relative viability ([5]; first compound 0.0128 µM) | relative viability ([5]; first compound 0.04048 µM) | relative viability ([5]; first compound 0.128 µM) | relative viability ([5]; first compound 1.28 µM) | relative viability ([1]; first compound 0.04048 µM)
1 | A-427 | 0.221 | 0.222 | 0.185 | 0.574 | 0.6 | 0.529 | 0.547 | 0.9 | 0.972 | 0.763 | 0.856 | 0.949 | 0.794 | 0.735 | 0.707 | 1.04 | 0.782 | 0.935 | 0.96 | –
2 | LCLC-97TM1 | 0.275 | 0.201 | 0.253 | 0.215 | 0.239 | 0.25 | 0.242 | 0.875 | 0.395 | 0.735 | 0.968 | 0.418 | – | 0.205 | 0.304 | 0.35 | 0.327 | 0.567 | 0.584 | 0.252
3 | LCLC-103H | 0.438 | 0.431 | 0.423 | 0.712 | 0.742 | 0.752 | 0.757 | 0.63 | 0.768 | 0.802 | 0.819 | 1.05 | 1.01 | 0.982 | 1.02 | 1.16 | 1.13 | 1.15 | 0.99 | 0.453
4 | PC-3 [JPC-3] | 0.845 | 0.802 | 0.896 | 0.703 | 0.815 | 0.839 | 0.94 | 0.667 | 0.989 | 0.808 | 1.01 | 0.99 | 0.824 | 0.966 | 0.943 | 0.94 | 0.823 | 0.827 | 0.819 | 0.904
5 | BEN | 0.56 | 0.518 | 0.432 | 0.732 | 0.712 | 0.685 | 0.806 | 0.591 | 0.561 | 0.59 | 0.483 | 1.12 | 0.889 | 1.17 | 0.935 | 0.667 | 0.765 | 0.824 | 0.53 | 0.569
6 | NCI-H1666 | 0.619 | 0.593 | 0.587 | 0.719 | 0.684 | 0.777 | 0.716 | 1.14 | 0.938 | 1.13 | 1.14 | 0.874 | 1.12 | 0.858 | 0.787 | 0.946 | 0.859 | 0.807 | 0.68 | 0.67
7 | LC-2-ad | 0.379 | 0.405 | 0.371 | 0.672 | 0.751 | 0.699 | 0.763 | 0.857 | 0.742 | 0.703 | 0.703 | 0.469 | 0.428 | 0.485 | 0.483 | 1.09 | 1.12 | 1.06 | 1.01 | 0.542
8 | SK-LU-1 | 0.346 | 0.273 | 0.226 | 0.704 | 0.724 | 0.595 | 0.597 | 0.797 | 0.763 | 0.765 | 0.724 | 0.913 | 0.948 | 0.914 | 0.584 | 1.53 | 1.22 | 1.17 | 0.783 | 0.352
9 | ChaGo-K-1 | 0.215 | 0.211 | 0.195 | 0.488 | 0.55 | 0.533 | 0.54 | 0.802 | 0.768 | 0.679 | 0.555 | 1.09 | 1.15 | 1.05 | 1.03 | 0.922 | 1.13 | 0.865 | 0.973 | 0.218
10 | COR-L 105 | 0.335 | 0.355 | 0.269 | 0.673 | 0.633 | 0.622 | 0.605 | 0.75 | 1.04 | 0.907 | 0.584 | 0.835 | 0.738 | 0.692 | 0.698 | 0.73 | 0.854 | 0.657 | 0.386 | 0.309
11 | NCI-H1975 | 0.868 | 0.528 | 0.159 | 0.368 | 0.446 | 0.366 | 0.363 | 0.724 | 0.735 | 0.624 | 0.41 | 1 | 0.963 | 0.863 | 0.623 | 0.401 | 0.399 | 0.332 | 0.199 | 0.896
12 | NCI-H1993 | 0.568 | 0.56 | 0.546 | 0.541 | 0.607 | 0.693 | 0.576 | 0.916 | 0.682 | 0.957 | 0.726 | 0.879 | 0.762 | 1.06 | 0.893 | 1.2 | 1.09 | 1 | 0.956 | 0.534
13 | RERF-LC-KJ | 0.51 | 0.401 | 0.424 | 0.748 | 0.75 | 0.724 | 0.658 | 0.754 | 0.737 | 0.75 | 0.619 | 0.892 | 0.764 | 0.813 | 0.811 | 1.16 | 1.21 | 1.13 | 1.07 | 0.522

Reference: the supplement of paper PMC10307832
